Test results as given in patent US20130203778A1, “PHARMACEUTICAL COMPOSITION COMPRISING A PYRIMIDINEONE DERIVATIVE” (Glenmark Pharmaceuticals S.A., priority 2010, published 2013).

Assays:
[1] = Qualitative solubility of Compound I in water and organic solvents; assay type: physicochemical
[2] = Solubility of Compound I with various hydrophilic carriers and in solid dispersion composition form at 25° C. (HPLC assay); assay type: physicochemical
Method: Buffers were prepared as per USP. Compound I (100 mg) equivalent was added to various buffers (100 ml) in presence of various hydrophilic carriers. The samples were sonicated for 15 minutes. A solid dispersion composition form of Compound I was also evaluated for solubility on similar lines. Quantification was done by assay method on HPLC by comparison with standard solution. The assay provided the relative amount of drug (mg/ml) in the sample solution. The results were extrapolated to represent the solubility in 900 ml of buffer solutions.
Preparation of Test solution: Compound I (100 mg) was added to various buffers (100 ml) in presence of various surfactants. The samples were sonicated for 15 minutes. Evaluation was done by assay method on HPLC by comparison with standard solution.
Mixture of 0.01M Ammonium Acetate Buffer and Acetonitrile in the ratio of 20:80% v/v.
Mixture of water and acetonitrile in the ratio of 20:80 v/v.
Column: Hypersil BDS C18, 150×4.6 mm, 5 μm
Column temperature: 25° C.

[3] = with Cetrimide, ratio (w/w) 1:10
[4] = with Cremophor EL, ratio (w/w) 1:10
[5] = with Gelucire 44/14, ratio (w/w) 1:10
[6] = with Hydroxypropyl beta-cyclodextrin, ratio (w/w) 1:10, BLD = Below limit of detection (0.01 ppm)
[7] = with Labrafil, ratio (w/w) 1:10
[8] = with Labrasol, ratio (w/w) 1:10
[9] = with Poloxamer 407, Compound I to carrier ratio (w/w) 1:1
[10] = with Sodium lauryl sulphate, ratio (w/w) 1:5, BLD = Below limit of detection (0.01 ppm)
[11] = with Tween 80, ratio (w/w) 1:10
[12] = with Tween 80, ratio (w/w) 1:30
[13] = with Vitamin E TPGS, ratio (w/w) 1:10
[14] = without hydrophilic carrier (1:0), BLD = Below limit of detection (0.01 ppm)

Solubility in acetone [1]: freely soluble
Solubility in chloroform [1]: freely soluble
Solubility in ethanol [1]: very slightly soluble
Solubility in methanol [1]: slightly soluble
Solubility in methylene dichloride [1]: freely soluble
Solubility in water ([1]; aqueous media having different pH ranging over 1.2 to 6.8): practically insoluble
Solubility, Acetate Buffer pH 4.5 [2, 3]: 0.27 mg/900 ml
Solubility, Phosphate Buffer pH 6.8 [2, 3]: 0.45 mg/900 ml
Solubility, Simulated gastric fluid pH 1.2 [2, 3]: 0.54 mg/900 ml
Solubility, Acetate Buffer pH 4.5 [2, 4]: 2.61 mg/900 ml
Solubility, Phosphate Buffer pH 6.8 [2, 4]: 2.52 mg/900 ml
Solubility, Simulated gastric fluid pH 1.2 [2, 4]: 0.54 mg/900 ml
Solubility, Acetate Buffer pH 4.5 [2, 5]: 1.17 mg/900 ml
Solubility, Phosphate Buffer pH 6.8 [2, 5]: 0.99 mg/900 ml
Solubility, Simulated gastric fluid pH 1.2 [2, 5]: 0.09 mg/900 ml
Solubility, Acetate Buffer pH 4.5 ([2]; with HPMC, ratio (w/w) 1:5): 0.18 mg/900 ml
Solubility, Phosphate Buffer pH 6.8 ([2]; with HPMC, ratio (w/w) 1:5): 0.81 mg/900 ml
Solubility, Simulated gastric fluid pH 1.2 ([2]; with HPMC, ratio (w/w) 1:5): 0.72 mg/900 ml
Solubility, Acetate Buffer pH 4.5 [2, 6]: BLD
Solubility, Phosphate Buffer pH 6.8 [2, 6]: BLD
Solubility, Simulated gastric fluid pH 1.2 [2, 6]: BLD
Solubility, Acetate Buffer pH 4.5 [2, 7]: 0.27 mg/900 ml
Solubility, Phosphate Buffer pH 6.8 [2, 7]: 0.18 mg/900 ml
Solubility, Simulated gastric fluid pH 1.2 [2, 7]: 0.09 mg/900 ml
Solubility, Acetate Buffer pH 4.5 [2, 8]: 0.18 mg/900 ml
Solubility, Phosphate Buffer pH 6.8 [2, 8]: 0.72 mg/900 ml
Solubility, Simulated gastric fluid pH 1.2 [2, 8]: 0.36 mg/900 ml
Solubility, Acetate Buffer pH 4.5 [2, 9]: 0.18 mg/900 ml
Solubility, Phosphate Buffer pH 6.8 [2, 9]: 0.09 mg/900 ml
Solubility, Simulated gastric fluid pH 1.2 [2, 9]: 0.27 mg/900 ml
Solubility, Acetate Buffer pH 4.5 [2, 10]: BLD
Solubility, Phosphate Buffer pH 6.8 [2, 10]: BLD
Solubility, Simulated gastric fluid pH 1.2 [2, 10]: BLD
Solubility, Acetate Buffer pH 4.5 [2, 11]: 3.06 mg/900 ml
Solubility, Phosphate Buffer pH 6.8 [2, 11]: 3.69 mg/900 ml
Solubility, Simulated gastric fluid pH 1.2 [2, 11]: 0.45 mg/900 ml
Solubility, Acetate Buffer pH 4.5 [2, 12]: 8.82 mg/900 ml
Solubility, Phosphate Buffer pH 6.8 [2, 12]: 15.84 mg/900 ml
Solubility, Simulated gastric fluid pH 1.2 [2, 12]: 1.44 mg/900 ml
Solubility, Acetate Buffer pH 4.5 [2, 13]: 1.35 mg/900 ml
Solubility, Phosphate Buffer pH 6.8 [2, 13]: 1.80 mg/900 ml
Solubility, Simulated gastric fluid pH 1.2 [2, 13]: 0.63 mg/900 ml
Solubility, Acetate Buffer pH 4.5 [2, 14]: BLD
Solubility, Phosphate Buffer pH 6.8 [2, 14]: BLD
Solubility, Simulated gastric fluid pH 1.2 [2, 14]: BLD**
SMILES: COc1cccc(/C=C/c2nc3sccn3c(=O)c2-c2ccc(OC(F)(F)F)cc2)c1OCC1CC1 [Compound I, 7-{(E)-2-[2-(cyclopropylmethoxy)-3-methoxyphenyl]vinyl}-6-(4-trifluoromethoxyphenyl)-5H-[1,3]thiazolo-[3,2-a]pyrimidin-5-one]
